From ChEMBL document CHEMBL5252509, “In depth analysis of kinase cross screening data to identify chemical starting points for inhibition of the Nek family of kinases” (Medchemcomm, 2018)

Legend:
[1] = molecular target: Serine/threonine-protein kinase Nek6 (Homo sapiens) (UniProt Q9HC98); assay: Inhibition of NEK6 (unknown origin) at 1 uM relative to control
[2] = molecular target: T1, Serine/threonine-protein kinase Nek3 (Homo sapiens) (UniProt P51956); assay: Inhibition of NEK3 (unknown origin) at 1 uM relative to control
T1 sequence (whole entry): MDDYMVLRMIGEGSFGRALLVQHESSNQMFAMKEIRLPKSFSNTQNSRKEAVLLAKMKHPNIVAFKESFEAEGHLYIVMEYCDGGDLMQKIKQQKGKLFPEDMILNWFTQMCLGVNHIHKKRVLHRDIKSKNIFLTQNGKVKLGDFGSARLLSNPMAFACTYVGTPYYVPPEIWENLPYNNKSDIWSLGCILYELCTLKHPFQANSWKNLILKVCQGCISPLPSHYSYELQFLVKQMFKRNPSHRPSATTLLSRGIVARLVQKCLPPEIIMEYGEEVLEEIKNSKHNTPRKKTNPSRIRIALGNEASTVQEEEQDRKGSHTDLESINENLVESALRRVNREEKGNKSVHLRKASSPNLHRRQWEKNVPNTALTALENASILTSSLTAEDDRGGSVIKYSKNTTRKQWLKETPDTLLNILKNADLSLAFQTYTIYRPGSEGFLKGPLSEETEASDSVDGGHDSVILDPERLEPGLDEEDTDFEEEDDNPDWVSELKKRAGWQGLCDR

[3] = molecular target: T2, Serine/threonine-protein kinase Nek10 (Homo sapiens) (UniProt Q6ZWH5); assay: Inhibition of NEK10 (unknown origin) at 1 uM relative to control
T2 sequence (whole entry): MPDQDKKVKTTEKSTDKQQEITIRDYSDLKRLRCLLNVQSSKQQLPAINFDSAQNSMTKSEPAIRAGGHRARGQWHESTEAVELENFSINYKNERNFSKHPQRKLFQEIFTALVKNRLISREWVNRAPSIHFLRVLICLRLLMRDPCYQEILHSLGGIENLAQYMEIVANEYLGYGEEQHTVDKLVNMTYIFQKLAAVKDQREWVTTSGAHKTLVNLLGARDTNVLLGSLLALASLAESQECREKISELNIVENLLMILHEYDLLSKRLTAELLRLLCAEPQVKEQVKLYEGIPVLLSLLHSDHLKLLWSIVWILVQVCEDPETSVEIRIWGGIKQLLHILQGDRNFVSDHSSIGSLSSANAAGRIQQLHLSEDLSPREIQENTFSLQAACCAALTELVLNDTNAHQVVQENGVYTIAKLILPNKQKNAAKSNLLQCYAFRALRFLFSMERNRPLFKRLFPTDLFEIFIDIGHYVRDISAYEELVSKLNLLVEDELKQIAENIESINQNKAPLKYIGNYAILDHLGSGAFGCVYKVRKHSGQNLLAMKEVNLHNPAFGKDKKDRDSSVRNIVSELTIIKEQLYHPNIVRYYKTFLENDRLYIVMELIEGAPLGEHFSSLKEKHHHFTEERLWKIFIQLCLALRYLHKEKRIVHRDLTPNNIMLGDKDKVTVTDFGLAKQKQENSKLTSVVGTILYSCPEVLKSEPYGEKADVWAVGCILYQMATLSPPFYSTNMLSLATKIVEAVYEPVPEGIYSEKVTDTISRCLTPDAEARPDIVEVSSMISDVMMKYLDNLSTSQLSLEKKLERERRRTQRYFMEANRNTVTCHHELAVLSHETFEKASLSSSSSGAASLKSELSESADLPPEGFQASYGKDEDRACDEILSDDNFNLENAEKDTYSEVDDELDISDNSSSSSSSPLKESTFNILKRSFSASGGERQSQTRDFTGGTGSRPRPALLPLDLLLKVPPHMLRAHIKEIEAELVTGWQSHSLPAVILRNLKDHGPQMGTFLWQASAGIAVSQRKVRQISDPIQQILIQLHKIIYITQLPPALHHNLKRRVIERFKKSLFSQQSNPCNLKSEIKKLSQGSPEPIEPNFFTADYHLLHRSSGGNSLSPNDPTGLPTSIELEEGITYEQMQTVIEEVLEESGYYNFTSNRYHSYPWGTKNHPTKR

[4] = molecular target: T3, Serine/threonine-protein kinase Nek5 (Homo sapiens) (UniProt Q6P3R8); assay: Inhibition of NEK5 (unknown origin) at 10 uM relative to control
T3 sequence (whole entry): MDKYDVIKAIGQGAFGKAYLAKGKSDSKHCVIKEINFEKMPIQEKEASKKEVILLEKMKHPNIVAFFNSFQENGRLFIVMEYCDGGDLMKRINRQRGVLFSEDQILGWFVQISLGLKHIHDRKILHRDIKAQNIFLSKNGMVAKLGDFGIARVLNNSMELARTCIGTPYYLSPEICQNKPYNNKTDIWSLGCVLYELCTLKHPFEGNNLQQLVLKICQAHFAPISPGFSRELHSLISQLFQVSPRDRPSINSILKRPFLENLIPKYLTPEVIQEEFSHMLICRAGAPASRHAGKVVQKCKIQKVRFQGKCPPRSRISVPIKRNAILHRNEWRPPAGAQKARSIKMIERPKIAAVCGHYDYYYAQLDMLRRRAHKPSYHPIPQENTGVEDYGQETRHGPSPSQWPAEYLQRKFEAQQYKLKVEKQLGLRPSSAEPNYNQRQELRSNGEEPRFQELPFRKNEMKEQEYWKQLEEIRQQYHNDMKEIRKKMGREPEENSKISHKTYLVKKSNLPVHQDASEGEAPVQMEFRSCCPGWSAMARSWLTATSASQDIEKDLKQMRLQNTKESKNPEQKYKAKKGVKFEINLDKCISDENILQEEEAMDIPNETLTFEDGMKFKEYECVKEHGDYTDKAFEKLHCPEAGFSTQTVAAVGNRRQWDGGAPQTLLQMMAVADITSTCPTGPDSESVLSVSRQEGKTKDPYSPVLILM

[5] = molecular target: Serine/threonine-protein kinase Nek6 (Homo sapiens) (UniProt Q9HC98); assay: Inhibition of NEK6 (unknown origin) at 10 uM relative to control
[6] = molecular target: Serine/threonine-protein kinase Nek7 (Homo sapiens) (UniProt Q8TDX7); assay: Inhibition of NEK7 (unknown origin) at 10 uM relative to control
Serine/threonine-protein kinase Nek7 (Homo sapiens), sequence (Q8TDX7 whole entry, looked up): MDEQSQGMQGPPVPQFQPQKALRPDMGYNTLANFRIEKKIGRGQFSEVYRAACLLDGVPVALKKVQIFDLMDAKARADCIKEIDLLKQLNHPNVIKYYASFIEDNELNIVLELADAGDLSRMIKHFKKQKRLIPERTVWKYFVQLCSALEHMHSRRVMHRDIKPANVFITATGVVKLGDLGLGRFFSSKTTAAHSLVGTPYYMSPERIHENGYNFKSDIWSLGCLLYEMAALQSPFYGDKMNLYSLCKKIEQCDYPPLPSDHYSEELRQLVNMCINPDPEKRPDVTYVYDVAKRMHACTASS

[7] = molecular target: Serine/threonine-protein kinase Nek4 (Homo sapiens) (UniProt P51957); assay: Inhibition of NEK4 (unknown origin) at 10 uM relative to control
Serine/threonine-protein kinase Nek4 (Homo sapiens), sequence (P51957 whole entry, looked up): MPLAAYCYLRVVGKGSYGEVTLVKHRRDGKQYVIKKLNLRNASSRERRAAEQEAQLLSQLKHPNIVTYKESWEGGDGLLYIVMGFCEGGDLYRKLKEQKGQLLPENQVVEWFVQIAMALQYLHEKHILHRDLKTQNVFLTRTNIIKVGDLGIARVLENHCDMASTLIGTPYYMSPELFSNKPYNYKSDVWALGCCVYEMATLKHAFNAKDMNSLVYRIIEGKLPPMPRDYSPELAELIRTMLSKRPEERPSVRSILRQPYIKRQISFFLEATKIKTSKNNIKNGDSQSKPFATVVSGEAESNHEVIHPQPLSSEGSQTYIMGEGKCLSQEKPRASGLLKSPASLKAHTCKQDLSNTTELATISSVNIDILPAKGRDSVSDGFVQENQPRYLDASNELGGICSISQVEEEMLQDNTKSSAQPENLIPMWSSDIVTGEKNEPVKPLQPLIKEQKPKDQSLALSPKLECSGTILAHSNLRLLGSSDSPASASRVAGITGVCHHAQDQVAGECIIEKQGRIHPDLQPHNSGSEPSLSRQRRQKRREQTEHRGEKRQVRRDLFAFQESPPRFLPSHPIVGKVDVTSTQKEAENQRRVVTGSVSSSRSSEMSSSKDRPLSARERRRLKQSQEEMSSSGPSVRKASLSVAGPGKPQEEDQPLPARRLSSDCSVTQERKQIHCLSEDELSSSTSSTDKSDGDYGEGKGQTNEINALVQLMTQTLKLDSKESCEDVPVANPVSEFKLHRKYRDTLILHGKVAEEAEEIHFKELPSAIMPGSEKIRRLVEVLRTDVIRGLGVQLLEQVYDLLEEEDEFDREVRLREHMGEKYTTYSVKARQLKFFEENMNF

Serine/threonine-protein kinase Nek6 (Homo sapiens), sequence (Q9HC98 whole entry): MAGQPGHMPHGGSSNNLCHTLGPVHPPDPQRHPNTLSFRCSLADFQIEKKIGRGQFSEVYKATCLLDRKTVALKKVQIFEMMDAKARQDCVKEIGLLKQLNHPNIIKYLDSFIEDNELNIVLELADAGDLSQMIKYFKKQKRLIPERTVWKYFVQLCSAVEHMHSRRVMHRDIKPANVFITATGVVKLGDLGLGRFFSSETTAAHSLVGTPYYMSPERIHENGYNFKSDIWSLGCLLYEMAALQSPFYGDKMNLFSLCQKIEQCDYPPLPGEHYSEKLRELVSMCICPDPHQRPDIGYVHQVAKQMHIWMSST

Compound	inhibition [1] [%]	inhibition [2] [%]	inhibition [3] [%]	% control [4] [%]	% control [5] [%]	% control [6] [%]	% control [7] [%]
Cc1ccc(CC(=O)N2CCc3cc(-c4cn(C)c5ncnc(N)c45)ccc32)cc1	19	7	0	–	–	–	–
CN(C)C/C=C/C(=O)Nc1cccc(C(=O)Nc2ccc(Nc3nccc(-c4c(-c5ccccc5)nn5ccccc45)n3)cc2)c1	–	–	–	98	100	100	100
Cn1cc(-c2ccc3c(c2)CCN3C(=O)Cc2cc(F)cc(F)c2F)c2c(N)ncnc21	18	0	10	–	–	–	–
O=c1[nH]ccc2nc(N[C@@H]3CCCNC3)nc(Nc3ccc(S(=O)(=O)N4CCOCC4)cc3)c12	54	11	4.4	–	–	–	–
CC(C)Oc1ccc2c(-c3ccnc(Nc4ccc(N5CCN(C)CC5)cc4)n3)cnn2n1	6.3	1.5	2.4	–	–	–	–
Nc1nccc2scc(-c3ccc4c(c3)CCN4C(=O)Cc3ccccc3)c12	0	10	9	–	–	–	–
CN(C)C/C=C/C(=O)Nc1cccc(C(=O)Nc2ccc(Nc3nccc(-c4cccnc4)n3)cc2)c1	–	–	–	7.8	17	7	83
Nc1ncc(-c2cccnc2)c2scc(-c3ccc4c(c3)CCN4C(=O)Cc3ccccc3)c12	8	1	14	–	–	–	–
CC(C)c1nc(-c2cccc(NS(=O)(=O)c3ccccc3)c2)c(-c2ccnc(Nc3ccc4c(c3)CN(C)CC4)n2)s1	100	73	100	–	–	–	–
COc1ccc(C2=C(Nc3cccc(C(=O)O)c3)C(=O)NC2=O)cc1	13	31	2	–	–	–	–
Cc1ccccc1CC(=O)N1CCc2cc(-c3cn(C)c4ncnc(N)c34)ccc21	0	0	0	–	–	–	–
c1ccc(-c2ccnc3[nH]ccc23)cc1	0	19	30	–	–	–	–
COc1ccc(Nc2ncc(C#N)c(Nc3ccccc3C(N)=O)n2)cc1N1CCN(C)CC1	0.1	6.5	5.9	–	–	–	–
COc1cccc(C2=C(Nc3cccc(O)c3)C(=O)NC2=O)c1	0	19	67	–	–	–	–
COc1cccc(CC(=O)N2CCc3cc(-c4cn(C)c5ncnc(N)c45)ccc32)c1	18	4	7	–	–	–	–
Cn1cc(-c2cnc(N)c3c(-c4ccc5c(c4)CCN5C(=O)Cc4ccccc4)csc23)cn1	0	1	22	–	–	–	–
CN(C)C/C=C/C(=O)Nc1ccc(C(=O)Nc2cccc(Nc3nccc(-c4cccnc4)n3)c2)cc1	–	–	–	2.2	2.8	9.8	100
Cc1ccc(NC(=O)c2ccc(NC(=O)/C=C/CN(C)C)cc2)cc1Nc1nccc(-c2cccnc2)n1	–	–	–	51	44	20	100

Compound	inhibition [1] [%]	inhibition [2] [%]	inhibition [3] [%]	% control [4] [%]	% control [5] [%]	% control [6] [%]	% control [7] [%]
O=C1NC(=O)C(c2ccccc2Cl)=C1Nc1cccc(Cl)c1	1	56	51	–	–	–	–
Cn1cc(-c2ccc3c(c2)CCN3C(=O)Cc2cccc(F)c2)c2c(N)ncnc21	0	11	22	–	–	–	–
COc1cccc(C2=C(Nc3ccc(Cl)c(C(=O)O)c3)C(=O)NC2=O)c1	0	7	73	–	–	–	–
CN(C)C/C=C/C(=O)Nc1cccc(C(=O)Nc2ccc(Nc3nccc(/C(C#N)=C4\Nc5ccccc5S4)n3)cc2)c1	–	–	–	100	100	100	100
Nc1ncc(-c2cn[nH]c2)c2scc(-c3ccc4c(c3)CCN4C(=O)Cc3ccccc3)c12	3	0	22	–	–	–	–
CN(C)CCNS(=O)(=O)c1ccc(-c2ccnc3[nH]ccc23)cc1	1	0	17	–	–	–	–
NCCNS(=O)(=O)c1ccc(-c2ccnc3[nH]ccc23)cc1	4	14	69	–	–	–	–
COc1cccc(C2=C(Nc3cccc(Cl)c3)C(=O)NC2=O)c1	0	5	73	–	–	–	–
Cn1cc(-c2ccc3c(c2)CCN3C(=O)Cc2cccc(C(F)(F)F)c2)c2c(N)ncnc21	0	0	18	–	–	–	–
Cn1cc(-c2ccc3c(c2)CCN3C(=O)Cc2cccc(Cl)c2)c2c(N)ncnc21	11	1	18	–	–	–	–
Cc1cc(NC(=O)c2cccc(NC(=O)/C=C/CN(C)C)c2)ccc1Nc1nccc(-c2cccnc2)n1	–	–	–	92	100	100	79
CS(=O)(=O)Nc1ccc(-c2ccnc3[nH]ccc23)cc1	0	4	71	–	–	–	–
CC(C)c1nc(-c2cccc(NS(=O)(=O)c3c(F)cccc3F)c2F)c(-c2ccnc(Nc3ccc(N4CCOCC4)nc3)n2)s1	0.9	99	100	–	–	–	–
Cn1cc(-c2ccc3c(c2)CCN3C(=O)Cc2cc(F)cc(C(F)(F)F)c2)c2c(N)ncnc21	6	0	6	–	–	–	–
O=S(=O)(c1ccc(-c2ccnc3[nH]ccc23)cc1)N1CCCC1	0	16	15	–	–	–	–
Nc1nccc2scc(-c3ccc4c(c3)CCN4C(=O)Cc3cc(F)ccc3F)c12	0	0	12	–	–	–	–
COc1cc(Nc2ncc3c(C)nc(-c4cc5ccccc5[nH]4)n3n2)cc(OC)c1OC	70	89	0	–	–	–	–
Cn1cc(-c2ccc3c(c2)CCN3C(=O)Cc2ccccc2Cl)c2c(N)ncnc21	3	0	0	–	–	–	–
